Structures can show the parent of a compound that is named as a salt.
Legend:
[1] = Cmax of other small molecule drugs in plasma, preparation versus original drug solution (Experimental Example 7); format: in vivo; conditions: male SD rats, subcutaneous; for Cmax: Sprague-Dawley (SD), rat, sc; for Phospholipid Span sustained release preparation Cmax: drug in preparation made by prescription and method of Example 1
Method: In vivo experiments in animals were used to investigate the effects of other small molecule drugs on inhibiting burst release. […] The obtained phospholipid Span sustained release preparation and original drug solution of the other small molecule drugs (each drug was formulated with water, ethanol or DMSO for injection, depending on the specific solubility) were injected subcutaneously into male SD rats, whose blood was taken at regular intervals. The C. of the small molecule drugs in plasma was determined by high-performance liquid chromatography-mass spectrometry (LC-MS/MS), thereby investigating the effect on inhibiting burst release.

[2] = Blood concentration of 2,4-dinitrophenol in rats after subcutaneous dosing, surfactant comparison (Experimental Example 1); conditions: Sprague-Dawley (SD), rat, in vivo, sc, 12.5 mg/kg 2,4-dinitrophenol, LC-MS/MS, surfactant 3.5 g varied
Method: The following test was carried out in accordance with the preparation method of Example 1, except that the Span in the prescription of Example 1 was replaced with glyceryl dioleate (Test Example 1), Tween (Test Example 2) and sucrose acetate isobutyrate (Test Example 3). At the same time, the original drug solution group was designed (Test Example 4, 50 mg of the drug was dissolved in 10 mL of phosphate buffer (pH=7.6), and a solution of the same concentration as in Example 1 was prepared).
200-220 g of SD rats were randomly divided into five groups, 6 rats in each group, and were administered subcutaneously with 12.5 mg/kg dosage of 2,4-dinitrophenol (Example 1, Test Example 1, Test Example 2, Test Example 3 and Test Example 4). At the scheduled time point, blood was taken from the rat eye and placed in a heparin sodium anticoagulated test tube. After the sample was processed, the blood concentration was measured by LC-MS/MS.

[3] = In vivo pharmacokinetics of 2,4-dinitrophenol preparations, subcutaneous (Experimental Example 4); design: species or system male SD rats
Method: The product of Example 1 was injected subcutaneously into male SD rats, whose blood was taken at regular intervals. The content of 2,4-dinitrophenol in plasma was determined by high-performance liquid chromatography-mass spectrometry (LC-MS/MS), thereby investigating the sustained release effect thereof.
200-220 g of SD rats were randomly divided into three groups, solution group (Test Example 4 in Experimental Example 1), phospholipid Span gel group (Example 1), and high-concentration phospholipid gel group (prepared according to patent CN102526753A). There were 6 rats in each group and they were injected subcutaneously at the dosage of 12.5 mg/kg. At the scheduled time point, blood was taken from the rat eye and placed in a heparin sodium anticoagulated test tube. After the sample was processed, the blood concentration was measured by LC-MS/MS injection.
The fomulation of the high-concentration phospholipid gel sustained release preparation (patent CN102526753A) is as follows: […]

[4] = In vivo pharmacokinetics of dabigatran etexilate preparations, subcutaneous (Experimental Example 5); conditions: male, Sprague-Dawley (SD), rat, plasma, sc, SD rats, solution 11.4 mg/kg, gels 80 mg/kg
Method: At the scheduled time point, blood was taken from the rat eye and placed in a heparin sodium anticoagulated test tube. After the sample was processed, the blood concentration was measured by LC-MS/MS.

[5] = in vivo, drug in preparation made by prescription and method of Example 1, read-out: Phospholipid Span sustained release preparation Cmax
[6] = original drug solution in water, ethanol or DMSO for injection
[7] = drug in preparation made by prescription and method of Example 1, read-out: Phospholipid Span sustained release preparation Cmax

CCC1(c2ccccc2)C(=O)NC(=O)NC1=O [Phenobarbital]
Cmax [1, 5]: 2510 ± 680 ng/mL

O=[N+]([O-])c1ccc(O)c([N+](=O)[O-])c1 [Test Example4, 2,4-dinitrophenol]
Cmax [2]: 54500 ng/mL
Cmax ([3]; male, Sprague-Dawley (SD), rat, in vivo, sc, 12.5 mg/kg, rats, subcutaneous, same dose, 2,4-dinitrophenol): ~54500 ng/mL
Duration of drug release ([3]; rats, same dose, original drug group): 24 h

Cn1c(=O)c2[nH]cnc2n(C)c1=O [theophylline]
Cmax [1, 5]: 1540 ± 320 ng/mL

C/C=C1\[C@H]2C=C(C)C[C@]1(N)c1ccc(=O)[nH]c1C2 [Huperzine A]
Phospholipid Span sustained release preparation Cmax [1]: 1330 ± 220 ng/mL
Original drug Cmax [1, 6]: 13870 ± 2860 ng/mL

CC(=O)Oc1ccccc1C(=O)O [Aspirin]
Cmax [1, 7]: 14600 ± 3120 ng/mL

COc1cccc2c1C(=O)c1c(O)c3c(c(O)c1C2=O)C[C@@](O)(C(=O)CO)C[C@@H]3O[C@H]1C[C@H](N)[C@H](O)[C@H](C)O1 [Doxorubicin]
Cmax [1, 7]: 30 ± 10 ng/mL

CCCCCCOC(=O)NC(=N)c1ccc(NCc2nc3cc(C(=O)N(CCC(=O)OCC)c4ccccn4)ccc3n2C)cc1 [Solution group, dabigatran etexilate]
AUC (0→∞) ([3]; SD rats, subcutaneous, 12.5 mg/kg, 2,4-dinitrophenol): 10.19 ± 1.11 mg·days/L
AUC(0-t) [4]: 1970 ± 474 ng·h/mL
Cmax [4]: 244 ± 31.5 ng/mL
Tmax [4]: 3.18 ± 0.21 h
half-life [4]: 5.21 ± 0.83 h
MRT last ([4]; read-out: MRT0-t): 7.86 ± 1.14 h

C[C@@H]1C[C@H]2[C@@H]3CCC4=CC(=O)C=C[C@]4(C)[C@@]3(F)[C@@H](O)C[C@]2(C)[C@@]1(O)C(=O)CO [Dexamethasone]
Cmax ([1]; male, drug in preparation made by prescription and method of Example 1, read-out: Phospholipid Span sustained release preparation Cmax): 130 ± 50 ng/mL
Cmax ([1]; male, original drug solution in water, ethanol or DMSO for injection, read-out: Original drug Cmax): 530 ± 120 ng/mL

CN(C)C(=N)N=C(N)N [Metformin hydrochloride]
Cmax [1, 7]: 820 ± 90 ng/mL

NC(=O)N1c2ccccc2C=Cc2ccccc21 [Carbamazepine]
Cmax [1, 7]: 4460 ± 570 ng/mL

COCCOC(=O)C1=C(C)NC(C)=C(C(=O)OC(C)C)C1c1cccc([N+](=O)[O-])c1 (stereo not shown) [Nimodipine]
Cmax [1, 7]: 1510 ± 670 ng/mL

NS(=O)(=O)c1cc2c(cc1C(F)(F)F)NCNS2(=O)=O [Hydroflumethiazido]
Phospholipid Span sustained release preparation Cmax [1]: 870 ± 520 ng/mL
Original drug Cmax [1, 6]: 5780 ± 2060 ng/mL

Source: patent US20200069583A1, “IN SITU PHASE CHANGE GEL SUSTAINED-RELEASE SYSTEM FOR SMALL MOLECULE DRUG AND PREPARATION METHOD THEREOF” (SICHUAN UNIVERSITY, priority 2017, published 2020)
